# Measurements as given in PubChem BioAssay AID1745844 (Carcinogenic Potency Database (CPDB), 2022).
# System: rodent lifetime carcinogenesis bioassay, tumor incidence TD50
# Test: carcinogenic potency in animals, long-term in vivo studies, CPDB compilation (AID 1745844)
# Settings: mouse, strain B6C3F1, inhaled
structure (smiles),measurement,setting,value
C=CC=C,TD50,"females, site: Harderian gland, lesion: adenocarcinoma + adenoma + adenoma, bilateral, dosed 83 weeks, study length 104 weeks",26.2 mg/kg/day
same,TD50,"females, site: Harderian gland, lesion: adenoma + adenoma, bilateral, dosed 83 weeks, study length 104 weeks",26.2 mg/kg/day
same,TD50,"females, site: Zymbal's gland, lesion: adenoma + carcinoma, dosed 83 weeks, study length 104 weeks",3540 mg/kg/day
same,TD50,"females, site: all sites + forestomach + Harderian gland + heart + liver + lung + mammary gland + ovary, lesion: histiocytic sarcoma + malignant lymphoma, mixed type + malignant lymphoma, lymphocytic type + malignant lymphoma, undifferenti, dosed 83 weeks, study length 104 weeks",6.79 mg/kg/day
same,TD50,"females, site: all sites + forestomach + heart + liver + lung + mammary gland + ovary, lesion: malignant lymphoma, NOS + squamous-cell papilloma + hemangiosarcoma + hepatocellular adenoma + hepatocellular carcinoma + alveolar, dosed 61 weeks, study length 61 weeks",53 mg/kg/day
same,TD50,"females, site: all sites, lesion: hemangioma + hemangiosarcoma, dosed 83 weeks, study length 104 weeks",35 mg/kg/day
same,TD50,"females, site: all sites, lesion: hemangiosarcoma, dosed 83 weeks, study length 104 weeks",44.2 mg/kg/day
same,TD50,"females, site: all sites, lesion: histiocytic sarcoma + malignant lymphoma, mixed type + malignant lymphoma, lymphocytic type + malignant lymphoma, undifferenti, dosed 83 weeks, study length 104 weeks",27.4 mg/kg/day
same,TD50,"females, site: all sites, lesion: histiocytic sarcoma, dosed 83 weeks, study length 104 weeks",125 mg/kg/day
same,TD50,"females, site: all sites, lesion: malignant lymphoma, NOS, dosed 61 weeks, study length 61 weeks",270 mg/kg/day
same,TD50,"females, site: all sites, lesion: malignant lymphoma, lymphocytic type, dosed 83 weeks, study length 104 weeks",74.9 mg/kg/day
same,TD50,"females, site: all sites, lesion: malignant lymphoma, mixed type + malignant lymphoma, lymphocytic type + malignant lymphoma, undifferentiated type + malignant, dosed 83 weeks, study length 104 weeks",35.2 mg/kg/day
same,TD50,"females, site: any site (literature study), lesion: several types, types named in the paper, dosed 61 weeks, study length 61 weeks",41.5 mg/kg/day
same,TD50,"females, site: any site (literature study), lesion: several types, types named in the paper, dosed 83 weeks, study length 104 weeks",6.28 mg/kg/day
same,TD50,"females, site: forestomach, lesion: papilloma, NOS + squamous-cell carcinoma + squamous-cell papilloma, dosed 61 weeks, study length 61 weeks",462 mg/kg/day
same,TD50,"females, site: forestomach, lesion: papilloma, NOS + squamous-cell papilloma, dosed 61 weeks, study length 61 weeks",483 mg/kg/day
same,TD50,"females, site: forestomach, lesion: squamous-cell carcinoma + squamous-cell papilloma, dosed 61 weeks, study length 61 weeks",396 mg/kg/day
same,TD50,"females, site: forestomach, lesion: squamous-cell carcinoma + squamous-cell papilloma, dosed 83 weeks, study length 104 weeks",83.9 mg/kg/day
same,TD50,"females, site: forestomach, lesion: squamous-cell carcinoma, dosed 83 weeks, study length 104 weeks",257 mg/kg/day
same,TD50,"females, site: forestomach, lesion: squamous-cell papilloma, dosed 61 weeks, study length 61 weeks",461 mg/kg/day
same,TD50,"females, site: forestomach, lesion: squamous-cell papilloma, dosed 83 weeks, study length 104 weeks",126 mg/kg/day
same,TD50,"females, site: heart + liver + subcutaneous tissue, lesion: hemangiosarcoma, dosed 61 weeks, study length 61 weeks",147 mg/kg/day
same,TD50,"females, site: heart, lesion: hemangiosarcoma, dosed 61 weeks, study length 61 weeks",283 mg/kg/day
same,TD50,"females, site: heart, lesion: hemangiosarcoma, dosed 83 weeks, study length 104 weeks",104 mg/kg/day
same,TD50,"females, site: kidney, lesion: tubule adenoma, dosed 83 weeks, study length 104 weeks",1060 mg/kg/day
same,TD50,"females, site: liver, lesion: hepatocellular adenoma + hepatocellular carcinoma + neoplastic nodule, dosed 61 weeks, study length 61 weeks",1170 mg/kg/day
same,TD50,"females, site: liver, lesion: hepatocellular adenoma + hepatocellular carcinoma + neoplastic nodule, dosed 83 weeks, study length 104 weeks",22.8 mg/kg/day
same,TD50,"females, site: liver, lesion: hepatocellular adenoma + hepatocellular carcinoma, dosed 61 weeks, study length 61 weeks",1170 mg/kg/day
same,TD50,"females, site: liver, lesion: hepatocellular adenoma + hepatocellular carcinoma, dosed 83 weeks, study length 104 weeks",22.8 mg/kg/day
same,TD50,"females, site: liver, lesion: hepatocellular adenoma, dosed 61 weeks, study length 61 weeks",1590 mg/kg/day
same,TD50,"females, site: liver, lesion: hepatocellular adenoma, dosed 83 weeks, study length 104 weeks",28.5 mg/kg/day
same,TD50,"females, site: liver, lesion: hepatocellular carcinoma, dosed 83 weeks, study length 104 weeks",50.5 mg/kg/day
same,TD50,"females, site: lung, lesion: alveolar/bronchiolar adenoma + alveolar/bronchiolar carcinoma + adenocarcinoma, dosed 83 weeks, study length 104 weeks",12.4 mg/kg/day
same,TD50,"females, site: lung, lesion: alveolar/bronchiolar adenoma + alveolar/bronchiolar carcinoma, dosed 61 weeks, study length 61 weeks",203 mg/kg/day
same,TD50,"females, site: lung, lesion: alveolar/bronchiolar adenoma + alveolar/bronchiolar carcinoma, dosed 83 weeks, study length 104 weeks",13.8 mg/kg/day
same,TD50,"females, site: lung, lesion: alveolar/bronchiolar adenoma, dosed 61 weeks, study length 61 weeks",259 mg/kg/day
same,TD50,"females, site: lung, lesion: alveolar/bronchiolar adenoma, dosed 83 weeks, study length 104 weeks",20.3 mg/kg/day
same,TD50,"females, site: lung, lesion: alveolar/bronchiolar carcinoma + adenocarcinoma, dosed 83 weeks, study length 104 weeks",23.9 mg/kg/day
same,TD50,"females, site: lung, lesion: alveolar/bronchiolar carcinoma, dosed 61 weeks, study length 61 weeks",227 mg/kg/day
same,TD50,"females, site: mammary gland, lesion: acinar-cell carcinoma, dosed 61 weeks, study length 61 weeks",1030 mg/kg/day
same,TD50,"females, site: mammary gland, lesion: adenoacanthoma, dosed 83 weeks, study length 104 weeks",87.7 mg/kg/day
same,TD50,"females, site: mammary gland, lesion: adenocarcinoma + adenoacanthoma + mixed tumor, malignant, dosed 83 weeks, study length 104 weeks",47.4 mg/kg/day
same,TD50,"females, site: mammary gland, lesion: adenocarcinoma, dosed 83 weeks, study length 104 weeks",93.3 mg/kg/day
same,TD50,"females, site: mammary gland, lesion: mixed tumor, malignant, dosed 83 weeks, study length 104 weeks",2710 mg/kg/day
same,TD50,"females, site: ovary, lesion: adenoma + mixed tumor, benign, dosed 83 weeks, study length 104 weeks",78.9 mg/kg/day
same,TD50,"females, site: ovary, lesion: adenoma, dosed 83 weeks, study length 104 weeks",217 mg/kg/day
same,TD50,"females, site: ovary, lesion: granulosa-cell carcinoma + granulosa-cell tumor, dosed 61 weeks, study length 61 weeks",370 mg/kg/day
same,TD50,"females, site: ovary, lesion: granulosa-cell carcinoma, dosed 61 weeks, study length 61 weeks",7580 mg/kg/day
same,TD50,"females, site: ovary, lesion: granulosa-cell tumor, benign + granulosa-cell tumor, bilateral, dosed 83 weeks, study length 104 weeks",98 mg/kg/day
same,TD50,"females, site: ovary, lesion: granulosa-cell tumor, benign + granulosa-cell tumor, malignant, dosed 83 weeks, study length 104 weeks",65.4 mg/kg/day
same,TD50,"females, site: ovary, lesion: granulosa-cell tumor, malignant, dosed 83 weeks, study length 104 weeks",198 mg/kg/day
same,TD50,"females, site: ovary, lesion: mixed tumor, benign, dosed 83 weeks, study length 104 weeks",202 mg/kg/day
same,TD50,"females, site: subcutaneous tissue, lesion: neurofibrosarcoma + sarcoma, dosed 83 weeks, study length 104 weeks",128 mg/kg/day
same,TD50,"females, site: subcutaneous tissue, lesion: sarcoma, dosed 83 weeks, study length 104 weeks",131 mg/kg/day
same,TD50,"males, site: Harderian gland, lesion: adenocarcinoma + adenocarcinoma, bilateral, dosed 13 weeks, study length 104 weeks",63.5 mg/kg/day
